Laboratory results as given in paper PMC11356900, “Synthesis, Structural Properties and Biological Activities of Novel Hydrazones of 2-, 3-, 4-Iodobenzoic Acid” (Molecules, 2024).
≈ marks a conversion by molar mass, not a printed value.

Assays:
[1] = test system: Staphylococcus aureus ATCC 25923; assay: Broth microdilution MIC/MBC; conditions: Staphylococcus aureus, ATCC25923
[2] = test system: Staphylococcus epidermidis ATCC 12228; assay: Broth microdilution MIC/MBC; conditions: ATCC12228
L929 cell line = assay: MTT cytotoxicity assay; assay type: cell-based, mouse; conditions: for cytotoxicity: L929, 24 h culture
Experimental: Among all the newly synthesized compounds, four compounds designated as: 14, 20, 21 and 27 were selected for further testing of their cytotoxic properties at the doses of 10, 25, 50, 75 and 100 µM. The cytotoxic properties of the above compounds were tested on the cancer cell lines, i.e., A549 (ECACC 86012804) (non-small-cell lung cancer), T47D (ECACC 85102201) (breast cancer), HeLa (ATCC® CCL-2™) (cervical cancer) and normal line L929 (NCTC clone 929, ATCC® CCL-1™) (mouse fibroblasts) using the MTT test for 24- and 48 h cultures.
A549 (ECACC 86012804) (non-small-cell lung cancer) and T47D (ECACC 85102201) (breast cancer) were obtained from ECACC and propagated in Dulbecco’s Minimal Essential Medium, supplemented with 2 mM of glutamine, antibiotics ([…] streptomycin, 1% of 100 U/L penicillin) and 10% Fetal Bovine Serum. HeLa (ATCC® CCL-2™) (cervical cancer) and L929 (NCTC clone 929, ATCC® CCL-1™) (mouse fibroblasts) cell lines were obtained from ATCC and propagated in the Eagle Minimal Essential Medium supplemented with antibiotics ([…] streptomycin, 1% of 100 U/L penicillin) and with 10% and 5% FBS, respectively. The cell line was routinely grown in 75 cm^2 tissue culture flasks and kept in an incubator (humidified atmosphere of 5% CO2 at 37 °C). All examined cell lines were tested against mycoplasma contamination with microbiological assays.
The cell viability of tested compounds (14, 20, 21 and 27) was assessed by the MTT assay. In brief, the exponentially growing cells were plated in 100 μL/well in 96-well plates. After 24 h culturing, the cells were treated with different concentrations of compounds (range 10–100 μM). After 24 and 48 h of incubation, 10 μL of 5 mg/mL MTT was added to each well and the plates were incubated at 37 °C for additional 4 h. The medium was subsequently removed, the purple-colored precipitates of formazan were dissolved in 100 μL of DMSO. The color absorbance was recorded at 570 nm using a BioTek model EPOCH ELISA plate reader. All experiments were performed in triplicate. The absorbance values were in the range of linearity of the Lambert–Beer law.

[3] = test system: Bacillus cereus ATCC 10876; assay: Broth microdilution MIC/MBC; conditions: Bacillus cereus, ATCC10876
[4] = test system: Klebsiella pneumoniae ATCC 13883; assay: Broth microdilution MIC/MBC; conditions: ATCC13883

For `O=C(N/N=C/c1cc(Br)cc(Br)c1O)c1cccc(I)c1` [Compound 21, N-[(3,5-dibromo-2-hydroxyphenyl)methylidene]-3-iodobenzohydrazide], the MBC [1] was 31.2 µg/mL (≈ 59.6 µM), the MIC [1] was 7.81 µg/mL (≈ 14.9 µM) and the MBC [2] was 31.2 µg/mL (≈ 59.6 µM). It also gave an MIC [2] of 7.81 µg/mL (≈ 14.9 µM), a cell proliferation (L929 cell line; L929, 24h, 10 µM, Repeat No 1) of 96% and a cell proliferation (L929 cell line; L929, 24h, 10 µM, Repeat No 2) of 102%. It also gave a cell proliferation (L929 cell line; L929, 24h, 25 µM, Repeat No 1) of 101%, a cell proliferation (L929 cell line; L929, 24h, 25 µM, Repeat No 2) of 97% and a cell proliferation (L929 cell line; L929, 24h, 50 µM, Repeat No 1) of 100%. It also gave a cell proliferation (L929 cell line; L929, 24h, 50 µM, Repeat No 2) of 106%, a cell proliferation (L929 cell line; L929, 24h, 75 µM, Repeat No 1) of 118% and a cell proliferation (L929 cell line; L929, 24h, 75 µM, Repeat No 2) of 109%. For the same compound, the cell proliferation (L929 cell line; L929, 24h, 100 µM, Repeat No 1) was 89%, the cell proliferation (L929 cell line; L929, 24h, 100 µM, Repeat No 2) was 96% and the cytotoxicity (L929 cell line; tested doses 10–100 µM) was “approximately 20%”. For the same compound, the cell proliferation (L929 cell line; L929, 48h, 10 µM, Repeat No 1) was 94%, the cell proliferation (L929 cell line; L929, 48h, 10 µM, Repeat No 2) was 98% and the cell proliferation (L929 cell line; L929, 48h, 25 µM, Repeat No 1) was 89%. It also gave a cell proliferation (L929 cell line; L929, 48h, 25 µM, Repeat No 2) of 97%, a cell proliferation (L929 cell line; L929, 48h, 50 µM, Repeat No 1) of 89% and a cell proliferation (L929 cell line; L929, 48h, 50 µM, Repeat No 2) of 88%. The cell proliferation (L929 cell line; L929, 48h, 75 µM, Repeat No 1) was 104%, the cell proliferation (L929 cell line; L929, 48h, 75 µM, Repeat No 2) was 96% and the cell proliferation (L929 cell line; L929, 48h, 100 µM, Repeat No 1) was 89%. The cell proliferation (L929 cell line; L929, 48h, 100 µM, Repeat No 2) was 84%, the MBC [3] was 62.5 µg/mL (≈ 119 µM) and the MIC [3] was 15.6 µg/mL (≈ 29.8 µM). It also gave an MIC [4] of over 1000 µg/mL.

`O=C(N/N=C/c1cc(Cl)cc(I)c1O)c1ccc(I)cc1` [Compound 27, N-[(5-chloro-2-hydroxy-3-iodophenyl)methylidene]-4-iodobenzohydrazide] gave an MBC [1] of 250 µg/mL (≈ 475 µM), an MIC [1] of 62.5 µg/mL (≈ 119 µM) and an MBC [2] of 31.2 µg/mL (≈ 59.4 µM). It also gave an MIC [2] of 31.2 µg/mL (≈ 59.4 µM), a cell proliferation (L929 cell line; L929, 24h, 10 µM, Repeat No 1) of 101% and a cell proliferation (L929 cell line; L929, 24h, 10 µM, Repeat No 2) of 89%. For the same compound, the cell proliferation (L929 cell line; L929, 24h, 25 µM, Repeat No 1) was 96%, the cell proliferation (L929 cell line; L929, 24h, 25 µM, Repeat No 2) was 92% and the cell proliferation (L929 cell line; L929, 24h, 50 µM, Repeat No 1) was 95%. The cell proliferation (L929 cell line; L929, 24h, 50 µM, Repeat No 2) was 81%, the cell proliferation (L929 cell line; L929, 24h, 75 µM, Repeat No 1) was 103% and the cell proliferation (L929 cell line; L929, 24h, 75 µM, Repeat No 2) was 107%. The cell proliferation (L929 cell line; L929, 24h, 100 µM, Repeat No 1) was 92%, the cell proliferation (L929 cell line; L929, 24h, 100 µM, Repeat No 2) was 91% and the cytotoxicity (L929 cell line; tested doses 10–100 µM) was “approximately 20%”. It also gave a cell proliferation (L929 cell line; L929, 48h, 10 µM, Repeat No 1) of 92%, a cell proliferation (L929 cell line; L929, 48h, 10 µM, Repeat No 2) of 89% and a cell proliferation (L929 cell line; L929, 48h, 25 µM, Repeat No 1) of 95%. For the same compound, the cell proliferation (L929 cell line; L929, 48h, 25 µM, Repeat No 2) was 99%, the cell proliferation (L929 cell line; L929, 48h, 50 µM, Repeat No 1) was 92% and the cell proliferation (L929 cell line; L929, 48h, 50 µM, Repeat No 2) was 91%. The cell proliferation (L929 cell line; L929, 48h, 75 µM, Repeat No 1) was 99%, the cell proliferation (L929 cell line; L929, 48h, 75 µM, Repeat No 2) was 92% and the cell proliferation (L929 cell line; L929, 48h, 100 µM, Repeat No 1) was 87%. For the same compound, the cell proliferation (L929 cell line; L929, 48h, 100 µM, Repeat No 2) was 92%, the MBC [3] was 250 µg/mL (≈ 475 µM) and the MIC [3] was 62.5 µg/mL (≈ 119 µM). It also gave an MBC [4] of over 1000 µg/mL, an MBC/MIC [4] of over 2 and an MIC [4] of 500 µg/mL (≈ 950 µM).

Work on `O=C(N/N=C/c1cc(Cl)cc(I)c1O)c1cccc(I)c1` [Compound 20, N-[(5-chloro-2-hydroxy-3-iodophenyl)methylidene]-3-iodobenzohydrazide] yielded an MBC [1] of 3.91 µg/mL (≈ 7.43 µM), an MIC [1] of 1.95 µg/mL (≈ 3.7 µM) and an MBC [2] of 7.81 µg/mL (≈ 14.8 µM). The MIC [2] was 1.95 µg/mL (≈ 3.7 µM), the cell proliferation (L929 cell line; L929, 24h, 10 µM, Repeat No 1) was 99% and the cell proliferation (L929 cell line; L929, 24h, 10 µM, Repeat No 2) was 104%. It also gave a cell proliferation (L929 cell line; L929, 24h, 25 µM, Repeat No 1) of 89%, a cell proliferation (L929 cell line; L929, 24h, 25 µM, Repeat No 2) of 95% and a cell proliferation (L929 cell line; L929, 24h, 50 µM, Repeat No 1) of 87%. It also gave a cell proliferation (L929 cell line; L929, 24h, 50 µM, Repeat No 2) of 112%, a cell proliferation (L929 cell line; L929, 24h, 75 µM, Repeat No 1) of 103% and a cell proliferation (L929 cell line; L929, 24h, 75 µM, Repeat No 2) of 96%. The cell proliferation (L929 cell line; L929, 24h, 100 µM, Repeat No 1) was 86%, the cell proliferation (L929 cell line; L929, 24h, 100 µM, Repeat No 2) was 94% and the cytotoxicity (L929 cell line; tested doses 10–100 µM) was “approximately 20%”. For the same compound, the cell proliferation (L929 cell line; L929, 48h, 10 µM, Repeat No 1) was 91%, the cell proliferation (L929 cell line; L929, 48h, 10 µM, Repeat No 2) was 102% and the cell proliferation (L929 cell line; L929, 48h, 25 µM, Repeat No 1) was 88%. For the same compound, the cell proliferation (L929 cell line; L929, 48h, 25 µM, Repeat No 2) was 93%, the cell proliferation (L929 cell line; L929, 48h, 50 µM, Repeat No 1) was 94% and the cell proliferation (L929 cell line; L929, 48h, 50 µM, Repeat No 2) was 99%. For the same compound, the cell proliferation (L929 cell line; L929, 48h, 75 µM, Repeat No 1) was 94%, the cell proliferation (L929 cell line; L929, 48h, 75 µM, Repeat No 2) was 99% and the cell proliferation (L929 cell line; L929, 48h, 100 µM, Repeat No 1) was 87%. For the same compound, the cell proliferation (L929 cell line; L929, 48h, 100 µM, Repeat No 2) was 84%, the MBC [3] was 31.2 µg/mL (≈ 59.4 µM) and the MIC [3] was 7.81 µg/mL (≈ 14.8 µM). It also gave an MBC [4] of over 1000 µg/mL, an MBC/MIC [4] of over 2 and an MIC [4] of 500 µg/mL (≈ 950 µM).

`O=C(N/N=C/c1cc(I)cc(I)c1O)c1ccccc1I` [Compound 14, N-[(3,5-diiodo-2-hydroxyphenyl)methylidene]-2-iodobenzohydrazide] was tested, and the MBC [1] was 250 µg/mL (≈ 405 µM), the MIC [1] was 125 µg/mL (≈ 202 µM) and the MBC [2] was 250 µg/mL (≈ 405 µM). It also gave an MIC [2] of 125 µg/mL (≈ 202 µM), a cell proliferation (L929 cell line; L929, 24h, 10 µM, Repeat No 1) of 94% and a cell proliferation (L929 cell line; L929, 24h, 10 µM, Repeat No 2) of 94%. The cell proliferation (L929 cell line; L929, 24h, 25 µM, Repeat No 1) was 100%, the cell proliferation (L929 cell line; L929, 24h, 25 µM, Repeat No 2) was 89% and the cell proliferation (L929 cell line; L929, 24h, 50 µM, Repeat No 1) was 85%. It also gave a cell proliferation (L929 cell line; L929, 24h, 50 µM, Repeat No 2) of 73%, a cell proliferation (L929 cell line; L929, 24h, 75 µM, Repeat No 1) of 77% and a cell proliferation (L929 cell line; L929, 24h, 75 µM, Repeat No 2) of 69%. The cell proliferation (L929 cell line; L929, 24h, 100 µM, Repeat No 1) was 91%, the cell proliferation (L929 cell line; L929, 24h, 100 µM, Repeat No 2) was 97% and the cytotoxicity (L929 cell line; dose of 75 µM) was “around 40%”. The cytotoxicity (L929 cell line; tested doses 10–100 µM) was “approximately 20%”, the cell proliferation (L929 cell line; L929, 48h, 10 µM, Repeat No 1) was 75% and the cell proliferation (L929 cell line; L929, 48h, 10 µM, Repeat No 2) was 99%. It also gave a cell proliferation (L929 cell line; L929, 48h, 25 µM, Repeat No 1) of 106%, a cell proliferation (L929 cell line; L929, 48h, 25 µM, Repeat No 2) of 99% and a cell proliferation (L929 cell line; L929, 48h, 50 µM, Repeat No 1) of 83%. It also gave a cell proliferation (L929 cell line; L929, 48h, 50 µM, Repeat No 2) of 98%, a cell proliferation (L929 cell line; L929, 48h, 75 µM, Repeat No 1) of 83% and a cell proliferation (L929 cell line; L929, 48h, 75 µM, Repeat No 2) of 89%. It also gave a cell proliferation (L929 cell line; L929, 48h, 100 µM, Repeat No 1) of 94%, a cell proliferation (L929 cell line; L929, 48h, 100 µM, Repeat No 2) of 101% and an MBC [3] of 250 µg/mL (≈ 405 µM). It also gave an MIC [3] of 125 µg/mL (≈ 202 µM).
